# Laboratory results published in patent publication US8580762B2, “Substituted purine and 7-deazapurine compounds” (Epizyme, Inc., priority 2010, dated 2013).
# Like-named read-outs stand apart in the source and are kept apart here.
# Biological target: DOT1L(1-416) (Homo sapiens, UniProt Q8TEK3)
# Assay: Determination of IC50: DOT1L(1-416) methyltransferase assay, 3H-SAM, oligonucleosome substrate, Flashplate
# Format: biochemical
# Conditions: read-out: DOT1L IC50
# Protocol: Determination of IC50. Test compounds were serially diluted 3 fold in DMSO for 10 points and 1 μl was plated in a 384 well microtiter plate. […] 10 μl per well of substrate mix (same assay buffer with 200 nM S-[methyl-^3H]-adenosyl-L methionine, 600 nM of unlabeled […], and 20 nM oligonueleosome) was added to initiate the reaction. Reaction was incubated for 120 minutes at room temperature and quenched with 10 μl per well of 100 μM S-methyl-adenosyl-L methionine. For detection, substrate from 50 μl of reaction was immobilized on a 384 well Streptavidin coated Flashplate (Perkin Elmer) (also coated with 0.2% polyethyleneimine) and read on a Top Count scintillation counter (Perkin Elmer).
# Sequence of DOT1L(1-416) (Q8TEK3 1-416): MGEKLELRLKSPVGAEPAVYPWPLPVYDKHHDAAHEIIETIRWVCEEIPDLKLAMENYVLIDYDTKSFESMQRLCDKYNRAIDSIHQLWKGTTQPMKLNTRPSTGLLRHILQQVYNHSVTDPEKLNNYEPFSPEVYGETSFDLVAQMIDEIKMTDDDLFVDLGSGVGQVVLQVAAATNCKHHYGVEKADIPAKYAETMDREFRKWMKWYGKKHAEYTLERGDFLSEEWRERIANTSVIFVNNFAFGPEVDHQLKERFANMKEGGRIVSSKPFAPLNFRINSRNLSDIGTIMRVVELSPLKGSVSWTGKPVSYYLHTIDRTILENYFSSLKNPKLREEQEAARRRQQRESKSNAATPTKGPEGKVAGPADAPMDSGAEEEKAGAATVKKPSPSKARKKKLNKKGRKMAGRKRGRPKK
Compound,IC50 (class symbols),IC50
"CN(C[C@H]1C[C@@H](n2ccc3c(N)ncnc32)[C@H](O)[C@@H]1O)[C@H]1C[C@@H](CCc2nc3cc(C(F)(F)F)ccc3[nH]2)C1 [Compound 10, (1R,2S,3R,5R)-3-(4-amino-7H-pyrrolo[2,3-d]pyrimidin-7-yl)-5-((methyl((1r,3S)-3-(2-(5-(trifluoromethyl)-1H-benzo[d]imidazol-2-yl)ethyl)cyclobutyl)amino)methyl)cyclopentane-1,2-diol]",< 100 nM,–
"CN(C[C@H]1C[C@@H](n2ccc3c(N)ncnc32)[C@H](O)[C@@H]1O)C1CC(CCc2nc3cc(Br)ccc3[nH]2)C1 (stereo partly drawn) [Compound 26, (1R,2S,3R,5R)-3-(4-amino-7H-pyrrolo[2,3-d]pyrimidin-7-yl)-5-(((3-(2-(5-bromo-1H-benzo[d]imidazol-2-yl)ethyl)cyclobutyl)(methyl)amino)methyl)cyclopentane-1,2-diol]",< 100 nM,–
"CC(C)N(C[C@@H]1C[C@@H](O)[C@H](n2ccc3c(N)ncnc32)C1)[C@H]1C[C@@H](CCc2nc3cc(Cl)c(C(F)(F)F)cc3[nH]2)C1 [Compound 105, (1R,2R,4S)-2-(4-amino-7H-pyrrolo[2,3-d]pyrimidin-7-yl)-4-((((1r,3R)-3-(2-(5-chloro-6-(trifluoromethyl)-1H-benzo[d]imidazol-2-yl)ethyl)cyclobutyl) (isopropyl)amino)methyl)cyclopentanol]",1000 to 10000 nM,–
"CC(C)N(C[C@H]1O[C@@H](n2ccc3c(N)ncnc32)[C@H](O)[C@@H]1O)[C@H]1C[C@H](CCc2nc3cc(C(C)(C)C)ccc3[nH]2)C1 [Compound 75, (2R,3R,4S,5R)-2-(4-amino-7H-pyrrolo[2,3-d]pyrimidin-7-yl)-5-((((1s,3R)-3-(2-(5-(tert-butyl)-1H-benzo[d]imidazol-2-yl)ethyl)cyclobutyl)(isopropyl)amino)methyl)tetrahydrofuran-3,4-diol]",< 100 nM,0.59 nM
"CC(C)N(C[C@H]1C[C@@H](n2ccc3c(N)ncnc32)[C@H](O)[C@@H]1O)[C@H]1C[C@H](CCc2nc3cc(OC(F)(F)F)ccc3[nH]2)C1 [Compound 61, (1R,2S,3R,5R)-3-(4-amino-7H-pyrrolo[2,3-d]pyrimidin-7-yl)-5-((isopropyl((1s,3R)-3-(2-(5-(trifluoromethoxy)-1H-benzo[d]imidazol-2-yl)ethyl)cyclobutyl)amino)methyl)cyclopentane-1,2-diol]",100 to 1000 nM,–
"CN(C[C@H]1O[C@@H](n2cnc3c(N)ncnc32)[C@H](O)[C@@H]1O)[C@H]1C[C@H](CCc2nc3cc(C4COC4)ccc3[nH]2)C1 [Compound 65, (2R,3R,4S,5R)-2-(6-amino-9H-purin-9-yl)-5-((methyl((1s,3R)-3-(2-(5-(oxetan-3-yl)-1H-benzo[d]imidazol-2-yl)ethyl)cyclobutyl)amino)methyl)tetrahydrofuran-3,4-diol]",100 to 1000 nM,–
"CC(C)N(C[C@H]1O[C@@H](n2cnc3c(N)ncnc32)[C@H](O)[C@@H]1O)[C@H]1C[C@H](CCc2nc3cc(C4CC4)ccc3[nH]2)C1 [Compound 119, (2R,3R,4S,5R)-2-(6-amino-9H-purin-9-yl)-5-((((1s,3R)-3-(2-(5-cyclopropyl-1H-benzo[d]imidazol-2-yl)ethyl)cyclobutyl) (isopropyl)amino)methyl)tetrahydrofuran-3,4-diol]",< 100 nM,–
"CN(C[C@H]1C[C@@H](n2ccc3c(N)ncnc32)[C@H](O)[C@@H]1O)[C@H]1C[C@@H](CCc2nc3cc(C(F)(F)F)c(Cl)cc3[nH]2)C1 [Compound 9, (1R,2S,3R,5R)-3-(4-amino-7H-pyrrolo[2,3-d]pyrimidin-7-yl)-5-((((1r,3S)-3-(2-(6-chloro-5-(trifluoromethyl)-1H-benzo[d]imidazol-2-yl)ethyl)cyclobutyl)(methyl)amino)methyl)cyclopentane-1,2-diol]",< 100 nM,–
"CC(C)N(C[C@H]1O[C@@H](n2cnc3c(N)ncnc32)[C@H](O)[C@@H]1O)C1CC(CCc2nc3cc(C4(C)CC4)ccc3[nH]2)C1 (stereo partly drawn) [Compound 139, (2R,3R,4S,5R)-2-(6-amino-9H-purin-9-yl)-5-((isopropyl(3-(2-(5-(1-methylcyclopropyl)-1H-benzo[d]imidazol-2-yl)ethyl)cyclobutyl)amino)methyl)tetrahydro-furan-3,4-diol]",< 100 nM,–
"CC(C)N(C[C@H]1O[C@@H](n2ccc3c(N)ncnc32)[C@H](O)[C@@H]1O)[C@H]1C[C@H](CCc2nc3cc(OC(F)(F)F)ccc3[nH]2)C1 [Compound 76, (2R,3R,4S,5R)-2-(4-amino-7H-pyrrolo[2,3-d]pyrimidin-7-yl)-5-((isopropyl((1s,3R)-3-(2-(5-(trifluoromethoxy)-1H-benzo[d]imidazol-2-yl)ethyl)cyclobutyl)amino)methyl)tetrahydrofuran-3,4-diol]",< 100 nM,–
CC(C)N(C[C@H]1O[C@@H](n2cnc3c(N)ncnc32)[C@H](O)[C@@H]1O)[C@H]1C[C@@H](CCc2nc3cc(Cl)c(C(F)(F)F)cc3[nH]2)C1 [Compound 5],< 100 nM,0.59 nM
"CN(C[C@@H]1C[C@@H](O)[C@H](n2ccc3c(N)ncnc32)C1)C1CC(CCc2nc3cc(Cl)c(C(F)(F)F)cc3[nH]2)C1 (stereo partly drawn) [Compound 17, (1R,2R,4S)-2-(4-amino-7H-pyrrolo[2,3-d]pyrimidin-7-yl)-4-(((3-(2-(5-chloro-6-(trifluoromethyl)-1H-benzo[d]imidazol-2-yl)ethyl)cyclobutyl) (methyl)amino)methyl) cyclopentanol]",100 to 1000 nM,–
"CN(C[C@H]1O[C@@H](n2cnc3c(N)ncnc32)[C@H](O)[C@@H]1O)[C@H]1C[C@@H](CCc2nc3cc(C(C)(C)C)ccc3[nH]2)C1 [Compound 71, (2R,3R,4S,512)-2-(6-amino-9H-purin-9-yl)-5-((((1r,3S)-3-(2-(5-(tert-butyl)-1H-benzo[d]imidazol-2-yl)ethyl)cyclobutyl)(methyl)amino)methyl)tetrahydrofuran-3,4-diol]",< 100 nM,–
"CN(C[C@H]1C[C@@H](n2ccc3c(N)ncnc32)[C@H](O)[C@@H]1O)C1CC(CCc2nc3cc(Cl)c(Cl)cc3[nH]2)C1 (stereo partly drawn) [Compound 23, (1R,2S,3R,5R)-3-(4-amino-7H-pyrrolo[2,3-d]pyrimidin-7-yl)-5-(((3-(2-(5,6-dichloro-1H-benzo[d]imidazol-2-yl)ethyl)cyclobutyl)(methyl)amino)methyl)cyclopentane-1,2-diol]",< 100 nM,–

# Continued, in another order:
IC50 (class symbols),Compound,IC50
< 100 nM,"CC(C)(C)c1ccc2[nH]c(CC[C@H]3C[C@@H](N(CC4CC4)C[C@H]4C[C@@H](n5ccc6c(N)ncnc65)[C@H](O)[C@@H]4O)C3)nc2c1 [Compound 40, (1R,2S,3R,5R)-3-(4-amino-7H-pyrrolo[2,3-d]pyrimidin-7-yl)-5-((((1r,3S)-3-(2-(5-(tert-butyl)-1H-benzo[d]imidazol-2-yl)ethyl)cyclobutyl)(cyclopropylmethyl)amino)methyl)cyclopentane-1,2-diol]",–
< 100 nM,"CC(C)N(C[C@H]1O[C@@H](n2cnc3c(N)ncnc32)[C@H](O)[C@@H]1O)[C@H]1C[C@H](CCc2nc3cc(Cl)c(C(F)(F)F)cc3[nH]2)C1 [Compound 4, (2R,3R,4S,5R)-2-(6-amino-9H-purin-9-yl)-5-((((1s,3R)-3-(2-(5-chloro-6-(trifluoromethyl)-1H-benzo[d]imidazol-2-yl)ethyl)cyclobutyl)(isopropyl)amino)methyl)tetrahydrofuran-3,4-diol]",–
< 100 nM,"CCN(C[C@H]1O[C@@H](n2cnc3c(N)ncnc32)[C@H](O)[C@@H]1O)C1CC(CCc2nc3cc(C(C)(C)C)ccc3[nH]2)C1 (stereo partly drawn) [Compound 79, (2R,3R,4S,5R)-2-(6-amino-9H-purin-9-yl)-5-(((3-(2-(5-(tert-butyl)-1H-benzo[d]imidazol-2-yl)ethyl)cyclobutyl) (ethyl)amino)methyl) tetrahydrofuran-3,4-diol]",–
100 to 1000 nM,"CC(C)(C)c1ccc2[nH]c(CC[C@H]3C[C@H](N(C[C@H]4O[C@@H](n5cnc6c(N)ncnc65)[C@H](O)[C@@H]4O)CC(F)(F)F)C3)nc2c1 [Compound 80, (2R,3R,4S,5R)-2-(6-amino-9H-purin-9-yl)-5-((((1s,3R)-3-(2-(5-(tert-butyl)-1H-benzo[d]imidazol-2-yl)ethyl)cyclobutyl) (2,2,2-trifluoroethyl)amino)methyl)tetrahydrofuran-3,4-diol]",–
< 100 nM,"CCN(C[C@H]1O[C@@H](n2ccc3c(N)ncnc32)[C@H](O)[C@@H]1O)[C@H]1C[C@H](CCc2nc3cc(C(C)(C)C)ccc3[nH]2)C1 [Compound 88, (2R,3R,4S,5R)-2-(4-amino-7H-pyrrolo[2,3-d]pyrimidin-7-yl)-5-((((1s,3R)-3-(2-(5-(tert-butyl)-1H-benzo[d]imidazol-2-yl)ethyl)cyclobutyl) (ethyl)amino)methyl) tetrahydrofuran-3,4-diol]",–
< 100 nM,"CC(C)N(C[C@H]1O[C@@H](n2cnc3c(N)ncnc32)[C@H](O)[C@@H]1O)C1CC(CCc2nc3cc(C4(C#N)CCC4)ccc3[nH]2)C1 (stereo partly drawn) [Compound 117, 1-(2-(2-(3-((((2R,3S,4R,5R)-5-(6-amino-9H-purin-9-yl)-3,4-dihydroxytetrahydro-furan-2-yl)methyl)(isopropyl)amino)cyclobutyl)ethyl)-1H-benzo[d]imidazol-5-yl)cyclo-butanecarbonitrile]",–
< 100 nM,"CN(C[C@H]1O[C@@H](n2cnc3c(N)ncnc32)[C@H](O)[C@@H]1O)C1CC(CCc2nc3cc(C4(C)CCC4)ccc3[nH]2)C1 (stereo partly drawn) [Compound 33, (2R,3R,4S,5R)-2-(6-amino-9H-purin-9-yl)-5-((methyl(3-(2-(5-(1-methylcyclobutyl)-1H-benzo[d]imidazol-2-yl)ethyl)cyclobutyl)amino)methyl)tetrahydrofuran-3,4-diol]",–
